Test results published in patent US20250051346A1 (priority 2021, published 2025).
Where two headings read alike, the source gives them in different places.

Columns and labels:
5-HT2A [1] = target: T1, 5-HT2A (Homo sapiens, UniProt P28223); test: Serotonin 5-HT2A in vitro cellular IPOne agonism assay; type: cell-based; parameters: host or cells: CHO-K1; conditions: CHO-K1 cells, 60 min
Method: Serotonin 5-HT2A In Vitro Cellular IPOne Agonism Assay. The 5-HT2A IPOne HTRF assay was performed at Epics Therapeutics S.A. (Belgium, FAST-0505I) using conventional methods. Briefly, CHO-K1 cells expressing human recombinant 5-HT2A receptor grown to mid-log phase in culture media without antibiotics were detached with PBS-EDTA, centrifuged, and resuspended in medium without antibiotics buffer. 20,000 cells are distributed in a 96 well plate and incubated overnight at 37° C. with 5% CO2.
For agonist testing, the medium was removed and 20 μl of assay buffer plus 20 μl of test compound or reference agonist were added in each well. The plate was incubated for 60 min. at 37° C. with 5% CO2.
After addition of the lysis buffer containing IP1-d2 and anti-IP1 cryptate detection reagents, plates were incubated 1-hour at room temperature, and fluorescence ratios were measured according to the manufacturer specification, with the HTRF kit.

5-HT2A [2] = target: T1, 5-HT2A; test: Serotonin 5-HT2A in vitro radioligand binding competition assay; parameters: purchased Epics Therapeutics S.A. (Belgium), contract assay FAST-0505B; host or cells: membrane extracts; conditions: [3H]-DOI radiotracer, membrane extracts, read-out: 5HT2A R[…] ACTIVITY
Method: Serotonin 5-HT2A In Vitro Radioligand Binding Competition Assay. The 5-HT2A radioligand binding competition assay was performed at Epics Therapeutics S.A. (Belgium, FAST-0505B) using conventional methods. Briefly, competition binding was performed in duplicate in the wells of a 96 well plate (Master Block, Greiner, 786201) containing binding buffer (optimized for each receptor), membrane extracts (amount of protein/well optimized for each receptor), radiotracer [^3H]-DOI (final concentration optimized for each receptor) and test compound. Nonspecific binding was determined by co-incubation with 200-fold excess of cold competitor. The samples were incubated in a final volume of 0.1 ml at a temperature and for a duration optimized for each receptor and then filtered over filter plates. Filters were washed six times with 0.5 ml of ice-cold washing buffer (optimized for each receptor) and 50 μl of Microscint 20 (Packard) were added in each well. The plates were incubated 15 min on an orbital shaker and then counted with a TopCount™ for 1 min/well.

T1 sequence (P28223 whole entry): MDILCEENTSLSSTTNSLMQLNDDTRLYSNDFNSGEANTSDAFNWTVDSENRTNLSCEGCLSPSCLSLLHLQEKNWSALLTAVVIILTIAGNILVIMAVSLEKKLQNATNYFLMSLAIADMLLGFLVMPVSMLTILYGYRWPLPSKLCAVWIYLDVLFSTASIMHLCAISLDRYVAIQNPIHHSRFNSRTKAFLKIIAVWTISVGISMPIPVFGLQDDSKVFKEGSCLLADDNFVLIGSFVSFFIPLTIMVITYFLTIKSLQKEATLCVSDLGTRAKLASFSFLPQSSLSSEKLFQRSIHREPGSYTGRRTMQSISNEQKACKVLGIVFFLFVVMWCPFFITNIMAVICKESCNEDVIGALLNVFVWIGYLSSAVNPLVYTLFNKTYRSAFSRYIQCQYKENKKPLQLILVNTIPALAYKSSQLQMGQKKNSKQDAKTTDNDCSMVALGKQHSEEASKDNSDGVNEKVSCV

Structure (SMILES)	EC50 (5-HT2A [1]; benzofurans) [µM]	IC50 (5-HT2A [2]; benzofurans) [µM]	EC50 (5-HT2A [1]; benzothiophenes) [µM]	IC50 (5-HT2A [2]; benzothiophenes) [µM]
Fc1cccc2oc3c(c12)CN(C1CCC1)CCC3 [Compound 1, 2-cyclobutyl-10-fluoro-2,3,4,5-tetrahydro-1H-benzofuro[3,2-c]azepine]	> 10	> 10		
Fc1cccc2oc3c(c12)CCN(C1CCC1)CC3 [Compound 2, 3-cyclobutyl-10-fluoro-2,3,4,5-tetrahydro-1H-benzofuro[2,3-d]azepine]	1 to 10	1 to 10		
CN1CCc2oc3cccc(F)c3c2CC1 [Compound 3, 10-fluoro-3-methyl-2,3,4,5-tetrahydro-1H-benzofuro[2,3-d]azepine]	0.101 to 1	0.101 to 1		
CN1CCCc2oc3cccc(F)c3c2C1 [Compound 4, 10-fluoro-2-methyl-2,3,4,5-tetrahydro-1H-benzofuro[3,2-c]azepine]	> 10	1 to 10		
Fc1cccc2oc3c(c12)CN(CC(F)(F)F)CCC3 [Compound 5, 10-fluoro-2-(2,2,2-trifluoroethyl)-2,3,4,5-tetrahydro-1H-benzofuro[3,2-c]azepine]	> 10	> 10		
Fc1ccc2c3c(oc2c1)CCCNC3 [Compound 6, 8-fluoro-2,3,4,5-tetrahydro-1H-benzofuro[3,2-c]azepine]	1 to 10	> 10		
Fc1cccc2oc3c(c12)CNCCC3 [Compound 7, 10-fluoro-2,3,4,5-tetrahydro-1H-benzofuro[3,2-c]azepine]	> 10	> 10		
Fc1cccc2oc3c(c12)CCN(CC(F)(F)F)CC3 [Compound 8, 10-fluoro-3-(2,2,2-trifluoroethyl)-2,3,4,5-tetrahydro-1H-benzofuro[2,3-d]azepine]	1 to 10	> 10		
CN1CCCc2oc3cc(F)ccc3c2C1 [Compound 9, 8-fluoro-2-methyl-2,3,4,5-tetrahydro-1H-benzofuro[3,2-c]azepine]	1 to 10	1 to 10		
Fc1cccc2oc3c(c12)CCNCC3 [Compound 10, 10-fluoro-2,3,4,5-tetrahydro-1H-benzofuro[2,3-d]azepine]	0.101 to 1	0.101 to 1		
COc1ccc2c3c(oc2c1)CCCN(CC(F)(F)F)C3 [Compound 11, 8-methoxy-2-(2,2,2-trifluoroethyl)-2,3,4,5-tetrahydro-1H-benzofuro[3,2-c]azepine]	> 10	> 10		
COc1ccc2c3c(oc2c1)CCCN(C1CCC1)C3 [Compound 12, 2-cyclobutyl-8-methoxy-2,3,4,5-tetrahydro-1H-benzofuro[3,2-c]azepine]	> 10	> 10		
FC(F)(F)CN1CCCc2oc3ccccc3c2C1 [Compound 13, 2-(2,2,2-trifluoroethyl)-2,3,4,5-tetrahydro-1H-benzofuro[3,2-c]azepine]	> 10	> 10		
COc1cccc2oc3c(c12)CCN(C1CCC1)CC3 [Compound 15, 3-cyclobutyl-10-methoxy-2,3,4,5-tetrahydro-1H-benzofuro[2,3-d]azepine]	1 to 10	1 to 10		
COc1cccc2oc3c(c12)CCNCC3 [Compound 16, 10-methoxy-2,3,4,5-tetrahydro-1H-benzofuro[2,3-d]azepine]	0.01 to 0.1	0.101 to 1		
COc1ccc2c3c(oc2c1)CCCN(C)C3 [Compound 17, 8-methoxy-2-methyl-2,3,4,5-tetrahydro-1H-benzofuro[3,2-c]azepine]	> 10	> 10		
COc1cccc2oc3c(c12)CNCCC3 [Compound 18, 10-methoxy-2,3,4,5-tetrahydro-1H-benzofuro[3,2-c]azepine]	1 to 10	1 to 10		
COc1ccc2c3c(oc2c1)CCCNC3 [Compound 19, 8-methoxy-2,3,4,5-tetrahydro-1H-benzofuro[3,2-c]azepine]	> 10	> 10		
c1ccc2c3c(oc2c1)CCCN(C1CCC1)C3 [Compound 20, 2-cyclobutyl-2,3,4,5-tetrahydro-1H-benzofuro[3,2-c]azepine]	> 10	> 10		
CN1CCCc2oc3ccccc3c2C1 [Compound 21, 2-methyl-2,3,4,5-tetrahydro-1H-benzofuro[3,2-c]azepine]	> 10	> 10		

Structure (SMILES)	EC50 (5-HT2A [1]; benzofurans) [µM]	IC50 (5-HT2A [2]; benzofurans) [µM]	EC50 (5-HT2A [1]; benzothiophenes) [µM]	IC50 (5-HT2A [2]; benzothiophenes) [µM]
c1ccc2c3c(oc2c1)CCCNC3 [Compound 22, 2,3,4,5-tetrahydro-1H-benzofuro[3,2-c]azepine]	> 10	> 10		
Fc1ccc2c3c(oc2c1)CCNCC3 [Compound 24, 8-fluoro-2,3,4,5-tetrahydro-1H-benzofuro[2,3-d]azepine]	0.01 to 0.1	0.101 to 1		
COc1ccc2c3c(oc2c1)CCN(C1CCC1)CC3 [Compound 25, 3-cyclobutyl-8-methoxy-2,3,4,5-tetrahydro-1H-benzofuro[2,3-d]azepine]	> 10	> 10		
COc1ccc2c3c(oc2c1)CCN(C)CC3 [Compound 26, 8-methoxy-3-methyl-2,3,4,5-tetrahydro-1H-benzofuro[2,3-d]azepine]	> 10	1 to 10		
COc1ccc2c3c(oc2c1)CCNCC3 [Compound 27, 8-methoxy-2,3,4,5-tetrahydro-1H-benzofuro[2,3-d]azepine]	1 to 10	1 to 10		
FC(F)(F)CN1CCc2oc3ccccc3c2CC1 [Compound 29, 3-(2,2,2-trifluoroethyl)-2,3,4,5-tetrahydro-1H-benzofuro[2,3-d]azepine]	> 10	> 10		
c1ccc2c3c(oc2c1)CCNCC3 [Compound 31, 2,3,4,5-tetrahydro-1H-benzofuro[2,3-d]azepine]	0.101 to 1	0.101 to 1		
COc1ccc2c3c(sc2c1)CCNCC3 [Compound 35, 8-methoxy-2,3,4,5-tetrahydro-1H-benzo[4,5]thieno[2,3-d]azepine]			0.101 to 1	1 to 10
CN1CCc2oc3cc(C(F)(F)F)ccc3c2CC1 [Compound 39, 3-methyl-8-(trifluoromethyl)-2,3,4,5-tetrahydro-1H-benzofuro[2,3-d]azepine]	> 10	1 to 10		
CN1CCc2oc3cc(OC(F)(F)F)ccc3c2CC1 [Compound 40, 3-methyl-8-(trifluoromethoxy)-2,3,4,5-tetrahydro-1H-benzofuro[2,3-d]azepine]	> 10	1 to 10		
CN1CCc2oc3cc(OCc4ccccc4)ccc3c2CC1 [Compound 41, 8-(benzyloxy)-3-methyl-2,3,4,5-tetrahydro-1H-benzofuro[2,3-d]azepine]	> 10	0.101 to 1		
FC(F)(F)c1ccc2c3c(oc2c1)CCNCC3 [Compound 43, 8-(trifluoromethyl)-2,3,4,5-tetrahydro-1H-benzofuro[2,3-d]azepine]	0.101 to 1	1 to 10		
FC(F)(F)Oc1ccc2c3c(oc2c1)CCNCC3 [Compound 44, 8-(trifluoromethoxy)-2,3,4,5-tetrahydro-1H-benzofuro[2,3-d]azepine]	0.101 to 1	1 to 10		
c1ccc(COc2ccc3c4c(oc3c2)CCNCC4)cc1 [Compound 45, 8-(benzyloxy)-2,3,4,5-tetrahydro-1H-benzofuro[2,3-d]azepine]	1 to 10	1 to 10		
Fc1ccc2c3c(sc2c1)CCNCC3 [Compound 46, 8-fluoro-2,3,4,5-tetrahydro-1H-benzo[4,5]thieno[2,3-d]azepine]			< 0.01	0.01 to 0.1
FC(F)(F)c1ccc2c3c(oc2c1)CCCNC3 [Compound 48, 8-(trifluoromethyl)-2,3,4,5-tetrahydro-1H-benzofuro[3,2-c]azepine]	1 to 10	1 to 10		
FC(F)(F)Oc1ccc2c3c(oc2c1)CCCNC3 [Compound 49, 8-(trifluoromethoxy)-2,3,4,5-tetrahydro-1H-benzofuro[3,2-c]azepine]	1 to 10	1 to 10		
c1ccc(COc2ccc3c4c(oc3c2)CCCNC4)cc1 [Compound 50, 8-(benzyloxy)-2,3,4,5-tetrahydro-1H-benzofuro[3,2-c]azepine]	> 10	1 to 10		
c1ccc(COc2cccc3oc4c(c23)CNCCC4)cc1 [Compound 51, 10-(benzyloxy)-2,3,4,5-tetrahydro-1H-benzofuro[3,2-c]azepine]	> 10	1 to 10		
CN1CCCc2oc3cc(C(F)(F)F)ccc3c2C1 [Compound 52, 2-methyl-8-(trifluoromethyl)-2,3,4,5-tetrahydro-1H-benzofuro[3,2-c]azepine]	> 10	1 to 10		
